Data from patent US4654370A, “Glyceryl valproates” (Abbott Laboratories, priority 1980, dated 1987).

Key:
audiogenic seizures = experiment: Protective effects against audiogenic seizures in mice; type: in vivo; settings: oral; 800 mg./kg. valproic acid equivalent; 30 min after dosing; bell for one minute; groups of 10 mice
Protocol: The valproic acid equivalent of 800 mg./kg. of each compound was administered by oral intubation in a composition prepared as shown in Example 12 to groups of 10 mice. Thirty minutes after dosing, convulsions were produced by electrically activating a bell for one minute.

gastro-intestinal tract = settings: cited from earlier work
epileptic seizures = settings: stated as background; cited from earlier work
[1] = Absorption profiles and area-under-the-curve in beagle dog; type: in vivo; settings: blood, single oral dose 24.9 mg./kg. valproic acid equivalent
Protocol: Since it is possible that the new compounds are not absorbed as quickly as valproic acid itself, absorption profiles and area-under-the-curve (AUC) values were calculated for valproic acid, glyceride trivalproate and representatives of the current compounds. The phrase AUC values represents the total quantity of the compound which is absorbed by the blood during the time periods referred to in Table III expressed in mcg./ml. A beagle dog received a single oral dose of 24.9 mg./kg. valproic acid equivalent in a composition prepared as shown in Example 12. The blood concentrations are shown in Table III as mcg./ml. while the AUC values are expressed as hr.×mcg./ml.

[2] = Valproic acid blood plasma levels after oral intubation in mice; type: in vivo; settings: mouse, equivalent of 200 mg. valproic acid per animal, mean of 3-18 animals
Protocol: (§1) The compounds of the present invention were administered to mice and rats by oral intubation. A vehicle of 0.5% aqueous methylcellulose containing one drop of a polyethylene sorbitan monooleate was used to suspend the above compounds. In the case of Example 1, the compound was first ground in a tissue-homogenizer followed by mixing in a Waring blender. The results are shown in Table I expressed in mcg. of valproic acid per ml. of blood plasma at specified times.

[3] = Valproic acid blood plasma levels after oral intubation in rats; type: in vivo; settings: rat, equivalent of 200 mg. valproic acid per animal, mean of 3-18 animals
Protocol: as §1

SMILES	Percentage of Mice Exhibiting Seizures, Any Type (audiogenic seizures)	Percentage of Mice Exhibiting Seizures, Tonic Extension (audiogenic seizures)	adverse side effects (gastro-intestinal tract; reported by Meijer and Meinardi, 1975)	therapeutic value (epileptic seizures)	concentration at 0.5 h ([1]; 0.5 hrs.)	concentration at 1 h ([1]; 1 hr.)	concentration at 2 h ([1]; 2 hrs.)	concentration at 4 h ([1]; 4 hrs.)	concentration at 6 h ([1]; 6 hrs.)	AUC at 8 h ([1]; 8 hrs.)	concentration at 0.5 h ([2]; 0.5 hrs.)	concentration at 1.5 h ([2]; 1.5 hrs.)	concentration at 0.5 h ([3]; 0.5 hrs.)	concentration at 1.5 h ([3]; 1.5 hrs.)	gastro-intestinal irritation in patients (gastro-intestinal tract; patients using valproic acid)
CCCC(CCC)C(=O)OCC(O)CO (racemic) [Example 6, 1-Valproyl-glycerol]	50%	10%													
CCCC(CCC)C(=O)OC(COC(C)=O)COC(C)=O [Example 5, 1,3-Diacetyl-2-valproyl-glyceride]	50%	10%													
CCCC(CCC)C(=O)OCC(COC(=O)C(CCC)CCC)OC(=O)C(CCC)CCC [Glycerol trivalproate]	100%	80%	no adverse side effects	substantially no therapeutic value											
CCCC(CCC)C(=O)O [Valproic Acid, 2-propylpentanoic acid]	50%	10%			65600 ng/mL	40800 ng/mL	9000 ng/mL	2600 ng/mL	1300 ng/mL	82200 ng·h/mL	134000 ng/mL	72000 ng/mL	84100 ng/mL	27500 ng/mL	9-16%
